US9840467B2, “Arylhydrazides containing a 2-pyridone moiety as selective antibacterial agents” (ABAC THERAPEUTICS, S.L., priority 2014, dated 2017)
Values after ≈ are worked out from the molar mass of the structure shown.

How the values were obtained:
S. pneumoniae = test: MIC, CLSI microtiter dilution, S. pneumoniae; type: cell-based, Streptococcus pneumoniae; conditions: Streptococcus pneumoniae; S. pneumoniae; 37° C., 24 hours; 2.5% lysed horse blood; 5% CO2; read-out: MIC
Procedure: (§1) The products of the present invention were tested for their activity against A. baumannii as well as against the following bacteria: Staphylococcus aureus (S. aureus), Streptococcus pneumoniae (S. pneumoniae), Enterococcus faecium (E. faecium), Pseudomonas aeruginosa (P. aeruginosa), Klebsiella pneumoniae (K. pneumoniae.), Enterobacter aerogenes (E. aerogenes) and Escherichia coli (E. coli).
(§2) Minimal inhibitory concentrations (MICs) were determined using a standard microtiter dilution method, according to the Clinical and Laboratory Standards Institute (CLSI) procedures, in particular according to M07-A9: “Methods for Dilution Antimicrobial Susceptibility Tests for Bacteria That Grow Aerobically; Approved Standard—Ninth Edition”.
(§3) Briefly, compounds were dissolved with dimethyl sulfoxide (DMSO) at 12.8 mg/mL. Serial two-fold dilutions of compounds were performed in DMSO and 1 μl of each dilution were transferred into microtiter culture plates, followed by 100 μl of inoculated culture media to give a final microorganism concentration of 5×10^5 colony-forming units/mL. Plates were incubated at 37° C. for 24 hours and MICs determined as the lowest compound concentration that inhibited growth. Media used in determinations were Cation adjusted Mueller-Hinton Broth for all the microorganisms except for S. pneumoniae and E. faecium whose culture media were supplemented with 2.5% of lysed horse blood. Incubations were performed at air atmosphere except S. pneumoniae cultures that were incubated with 5% CO2 atmosphere.

K. pneumoniae = test: MIC, CLSI microtiter dilution, K. pneumoniae; type: cell-based, Klebsiella pneumoniae; conditions: Klebsiella pneumoniae; K. pneumoniae; 37° C., 24 hours; Cation adjusted Mueller-Hinton Broth; read-out: MIC
Procedure: as §1, §2, §3

E. aerogenes = test: MIC, CLSI microtiter dilution, E. aerogenes; type: cell-based, Enterobacter aerogenes; conditions: Klebsiella aerogenes; E. aerogenes; 37° C., 24 hours; Cation adjusted Mueller-Hinton Broth; read-out: MIC
Procedure: as §1, §2, §3

A. baumannii = test: MIC, CLSI microtiter dilution, A. baumannii; type: cell-based, Acinetobacter baumannii; conditions: Acinetobacter baumannii; A. baumannii; 37° C., 24 hours; Cation adjusted Mueller-Hinton Broth; read-out: MIC
Procedure: as §1, §2, §3

E. faecium = test: MIC, CLSI microtiter dilution, E. faecium; type: cell-based, Enterococcus faecium; conditions: Enterococcus faecium; E. faecium; 37° C., 24 hours; 2.5% lysed horse blood; read-out: MIC
Procedure: as §1, §2, §3

P. aeruginosa = test: MIC, CLSI microtiter dilution, P. aeruginosa; type: cell-based, Pseudomonas aeruginosa; conditions: Pseudomonas aeruginosa; P. aeruginosa; 37° C., 24 hours; Cation adjusted Mueller-Hinton Broth; read-out: MIC
Procedure: as §1, §2, §3

S. aureus = test: MIC, CLSI microtiter dilution, S. aureus; type: cell-based, Staphylococcus aureus; conditions: Staphylococcus aureus; S. aureus; 37° C., 24 hours; Cation adjusted Mueller-Hinton Broth; read-out: MIC
Procedure: as §1, §2, §3

E. coli = test: MIC, CLSI microtiter dilution, E. coli; type: cell-based, Escherichia coli; conditions: Escherichia coli; E. coli; 37° C., 24 hours; Cation adjusted Mueller-Hinton Broth; read-out: MIC
Procedure: as §1, §2, §3

| SMILES | MIC (S. pneumoniae) [µg/mL] | MIC (K. pneumoniae) [µg/mL] | MIC (E. aerogenes) [µg/mL] | MIC (A. baumannii) [µg/mL] | MIC (E. faecium) [µg/mL] | MIC (P. aeruginosa) [µg/mL] | MIC (S. aureus) [µg/mL] | MIC (E. coli) [µg/mL] |
| --- | --- | --- | --- | --- | --- | --- | --- | --- |
| O=C(NNc1ccc(F)cc1)c1cccc(=O)n1C(F)F [Ex. 4, 1-Difluoromethyl-6-oxo-1,6-dihydro-pyridine-2-carboxylic acid N′-(4-fluorophenyl)-hydrazide] | > 128 | > 128 | > 128 | 1 (≈ 3.36 µM) | > 128 | > 128 | > 128 | > 128 |
| Cn1cc(C(=O)NNc2ccc(F)cc2)ccc1=O [Ex. 19, 1-Methyl-6-oxo-1,6-dihydropyridine-3-carboxylic acid N′-(4-fluorophenyl)-hydrazide] | > 128 | > 128 | > 128 | 0.25 (≈ 0.957 µM) | > 128 | > 128 | > 128 | > 128 |
